2 compounds from patent US12589158B2 (priority 2022, dated 2026) can be followed below.

Where two headings read alike, the source gives them in different places.

In one series the test system is db/db mice. In words: Pharmacodynamics in db/db mice, single subcutaneous administration (blood glucose). Type of series: in vivo. The note with it: Group 2, single s.c. 10 nmol/kg, longest time with random blood glucose P<0.05 vs. vehicle. As for the experimental part:
The “inhibition of blood glucose AUC” as disclosed in the present invention is the reduction percentage of blood glucose AUC in the group taken the test compound as compared with the group taken the Vehicle. Inhibition of blood glucose AUC=(blood glucose AUCVehicle-blood glucose AUCtest compound)/blood glucose AUCVehicle.
In this study, 8-9 week old male db/db mice are used. The db/db mice are placed in an individual ventilated cage (IVC) facility with a controlled temperature (20-26° C.) and humidity (40-70%) and a controlled 12h: 12 h light-dark cycle. The mice received food and water ad libitum. Blood is sampled at the tail tip, and the fasting blood glucose is measured by a Roche blood glucose meter. The mice are randomly divided into groups according to the initial blood glucose and initial body weight (n=6/group), and each group had similar body weight and blood glucose.
After a single subcutaneous administration, the random blood glucoses are recorded at the set time point (0 to 120 hours, the recording of the random blood glucose is stopped until there is no difference between the random blood glucose of the compound and that of the vehicle group), and the daily body weight and food intake are also recorded. The data results are statistically analyzed using GraphPad Prism8, and the statistical differences among the groups are analyzed following a T-Test. […]

For a further series, the target named is T1, human GLP-1 receptor (Homo sapiens, UniProt P43220).
T1 construct: expressed in transfected cells; crude membranes
T1 sequence (P43220 24-463): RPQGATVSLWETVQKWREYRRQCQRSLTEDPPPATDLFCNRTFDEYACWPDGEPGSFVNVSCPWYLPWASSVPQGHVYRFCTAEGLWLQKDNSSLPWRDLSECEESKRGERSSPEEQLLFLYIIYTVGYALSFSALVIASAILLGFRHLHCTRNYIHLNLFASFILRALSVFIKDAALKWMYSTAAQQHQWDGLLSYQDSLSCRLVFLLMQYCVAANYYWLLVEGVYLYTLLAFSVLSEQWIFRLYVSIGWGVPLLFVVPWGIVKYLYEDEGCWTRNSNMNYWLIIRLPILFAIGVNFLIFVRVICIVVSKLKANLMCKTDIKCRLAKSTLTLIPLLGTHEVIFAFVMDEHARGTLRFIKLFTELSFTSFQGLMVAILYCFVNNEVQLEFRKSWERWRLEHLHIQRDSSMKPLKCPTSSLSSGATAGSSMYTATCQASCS
In words: In vitro binding activity to human GLP-1 receptor ([125I]GLP-1, crude cellular membranes). As to conditions: ratio of the Ki value of the endogenous ligand to the Ki value of the test compound; larger = stronger binding. The procedure:
89 μL of membrane dissolved in binding buffer (50 mM Hepes, pH 7.4, 5 mM MgCl2, 5 mM EDTA, 0.005% TWEEN, 0.005% HSA) is transferred to a 96-well test plate (5 μg/well). The compound is serially diluted in DMSO, and then, 1 μL of the diluted compound or 100% DMSO is added to the test plate containing the membrane solution. 10 μL of [^125I] […] The test plate is left at room temperature for 90 minutes. The membrane complexes are harvested into a GF/B plate pre-coated with 0.5% PEI by using a Cell Harvester, and washed for 3 times with 500 μL of pre-cooled elution buffer (50 mM Hepes, pH 7.4, 500 mM NaCl) at 4° C. After drying at 37° C. for 2 hours, 50 μL of scintillation fluid is added to each well. The plate is read with a MicroBeta2 scintillation counter after sealing and settling for at least 1 hour so as to determine the membrane bound radioligand level.
The absolute IC50 concentration of the compound is derived by non-linear regression of the binding percent of [^125I] […] The IC50 concentration is converted to Ki (Ki is the inhibition constant) using the Cheng-Prusoff equation.

Series [1] can be described thus: Pharmacokinetics following single administration in SD rat. The arrangement: species or system SD rats. The note with it: in vivo, sc, 50 nmol/kg. The method in brief: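 Male SD rats (230–268 g, n=3) dosed once at 50.0 nmol/kg s.c. or 25.0 nmol/kg i.v. Plasma protein precipitated with acetonitrile containing internal standards; drug concentration measured by LC-MS/MS.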

A short description of series [2]: Pharmacokinetics in cynomolgus monkeys. As to conditions: cynomolgus monkey, in vivo.
The format of series [3] is in vivo. The note with it: rat, in vivo, male SD rats. The procedure:
(§1) 77 SD male rats (SPF grade) are selected and randomly divided into 10 groups based on body weight. Group 1 is the vehicle control group, including 5 animals. […] Group 5 to Group 7 are the groups administrated with the test substance 1; and Group 8 to Group 10 are the groups administrated with the test substance 2, each group including 8 animals, wherein 5 animals for primary test, and 3 animals for toxicokinetics test, and the administration dose is 1, 3 and 10 mg/kg respectively. Each of the above groups is continuously administered twice a week for 2 weeks (administrating at Day 1, Day 5, Day 8, Day 12 and Day 15).
(§2) During the experiment, the cage condition monitoring, detailed clinical observations, determination of the food consumption, determination of body weight, measurement of the blood biochemical and hematology indicator, investigation of the gross anatomy, weighing of the organ, studying on toxicokinetic are performed on all the groups of the animals.
(§3) Original data during each time period is tabulated. The average values and standard deviations and/or group change are calculated for each assay endpoint based on the group and sex. For each endpoint, the administrated group will be compared with the control group in the following aspect. A logarithmic conversion is performed to the endpoint data as desired prior to the start of the specific analyses.

For a further series, the system named is SD male rats. The series is classed as in vivo. The procedure: as §1, §2, §3
Series [4] is described as follows: Pharmacokinetics in C57 mice. The note with it: mouse, in vivo. The procedure:
After subcutaneous or intravenous administration to C57 mice, plasma is collected and the drug concentration in plasma is determined to illustrate the in vivo pharmacokinetic properties of the compound according to the present invention. […] 20.0 μL of thawed plasma sample is taken. 20 μL of 50% aqueous methanol solution (containing 100 ng mL^−1 internal standard) and 60 μL of acetonitrile are added sequentially to precipitate protein. The mixture is vortexed for 5 minutes, and centrifuged at 3700 rpm for 8 minutes. 50.0 μL of the supernatant is taken, into which 50.0 μL of 0.5% aqueous formic acid solution is added. The mixture is vortexed for 5 minutes. 50 μL of the mixture solution is sampled and injected into the LC-MS/MS to determine the drug concentration in plasma.

The conditions of series [5]: in vivo.
A short description of series [6]: Pharmacokinetics in beagle dogs. The series is classed as in vivo. As to conditions: 0.05 mg/kg. As for the experimental part:
After subcutaneous administration to beagle dogs, plasma is collected and the drug concentration in plasma is determined to illustrate the in vivo pharmacokinetic properties of the compound according to the present invention. The compound of the present invention is administered to a beagle dog (7-9 kg) at a dose of 0.05 mg/kg subcutaneously (s.c.). About 500 μL of whole blood is collected from the saphenous vein into an EDTA-K2 anticoagulant tube at predose, 0.5 hours, 1 hour, 2 hours, 6 hours, 10 hours, 24 hours, 48 hours, 72 hours and 96 hours, respectively. The blood samples are centrifuged at 3000 g and at 2° C. to 8° C. for 10 minutes to obtain plasma, which is stored at −90° C. to −60° C. for further analysis and assay.
20.0 μL of thawed plasma sample is taken. […] Then 120 μL of 0.1% formic acid methanol is added to precipitate the protein. The mixture is vortexed for 5 minutes, and centrifuged at 4815 g for 10 minutes. 100.0 μL of the supernatant is taken, into which 100 μL of 0.5% aqueous formic acid solution is added. The mixture is vortexed for 5 minutes. 10 μL of the mixture solution is sampled and injected into the LC-MS/MS to determine the drug concentration in plasma.
Based on the drug concentration in plasma of the compound in the beagle dogs, the pharmacokinetic parameters are calculated by applying the software Winnolin 8.3 in a non-compartmental model.

Where [7] appears, read: male SD rats, twice a week for 2 weeks, 1, 3, 10 mg/kg.

As usually defined, the MRT inf is a mean duration of stay, worked out from the concentration-time curve. By MRT last is commonly meant a mean duration of stay, worked out from the concentration-time curve. Turning to `CC[C@H](C)[C@H](NC(=O)C(C)(C)NC(=O)[C@H](Cc1ccc(O)cc1)NC(=O)[C@H](CC(=O)O)NC(=O)[C@H](CO)NC(=O)[C@@H](NC(=O)C(C)(Cc1ccccc1)NC(=O)[C@@H](NC(=O)CNC(=O)[C@H](CCC(=O)O)NC(=O)C(C)(C)NC(=O)[C@@H](N)Cc1ccc(O)cc1)[C@@H](C)O)[C@@H](C)O)C(=O)NC(C)(C)C(=O)N[C@@H](CC(C)C)C(=O)N[C@@H](CC(=O)O)C(=O)N[C@@H](CCCCN)C(=O)N[C@@H](CCC(N)=O)C(=O)N[C@@H](C)C(=O)N[C@@H](CCC(N)=O)C(=O)N[C@@H](C)C(=O)N[C@@H](CCC(=O)O)C(=O)N[C@@H](Cc1ccccc1)C(=O)N[C@H](C(=O)N[C@@H](CCCCNC(=O)COCCOCCNC(=O)COCCOCCNC(=O)CC[C@H](NC(=O)CC[C@H](NC(=O)CC[C@H](NC(=O)CCCCCCCCCCCCCCCCC(=O)O)C(=O)O)C(=O)O)C(=O)O)C(=O)N[C@@H](Cc1c[nH]c2ccccc12)C(=O)N[C@@H](CC(C)C)C(=O)N[C@@H](CC(C)C)C(=O)N[C@@H](CCCCN)C(=O)NCC(=O)NCC(=O)N1CCC[C@H]1C(=O)N[C@@H](CO)C(=O)N[C@@H](CO)C(=O)NCC(=O)N[C@@H](C)C(=O)N1CCC[C@H]1C(=O)N1CCC[C@H]1C(=O)N1CCC[C@H]1C(=O)N[C@@H](CO)C(=O)N[C@@H](CCCCN)C(N)=O)C(C)C` (stereo partly drawn) [P015], in the series on db/db mice, the “Hypoglycemic Duration” value is on record as 32 h. On human GLP-1 receptor, the “GLP-1R Ki ratio” value was 0.17. In [1], this compound gave an MRT inf of 31.4 ± 1.35 h and an MRT last of 26.8 ± 0.557 h.

As a reminder, the AUC(0-t) is the area under the concentration-time curve up to a stated or last time point. Low readings indicate low exposure, high ones high exposure. Consider `CC[C@H](C)[C@H](NC(=O)C(C)(C)NC(=O)[C@H](Cc1ccc(O)cc1)NC(=O)[C@H](CC(=O)O)NC(=O)[C@H](CO)NC(=O)[C@@H](NC(=O)C(C)(Cc1ccccc1)NC(=O)[C@@H](NC(=O)CNC(=O)[C@H](CCC(=O)O)NC(=O)C(C)(C)NC(=O)[C@@H](N)Cc1ccc(O)cc1)[C@@H](C)O)[C@@H](C)O)C(=O)NC(C)(C)C(=O)N[C@@H](CC(C)C)C(=O)N[C@@H](CC(=O)O)C(=O)N[C@@H](CCCCN)C(=O)N[C@@H](CCC(N)=O)C(=O)N[C@@H](C)C(=O)N[C@@H](CCC(N)=O)C(=O)N[C@@H](C)C(=O)N[C@@H](CCC(=O)O)C(=O)N[C@@H](Cc1ccccc1)C(=O)N[C@H](C(=O)N[C@@H](CCCCNC(=O)COCCOCCNC(=O)COCCOCCNC(=O)COCCOCCNC(=O)CC[C@H](NC(=O)CCCCCCCCCCCCCCCCCCCCC(=O)O)C(=O)O)C(=O)N[C@@H](Cc1c[nH]c2ccccc12)C(=O)N[C@@H](CC(C)C)C(=O)N[C@@H](CC(C)C)C(=O)N[C@@H](CCCCN)C(=O)NCC(=O)NCC(=O)N1CCC[C@H]1C(=O)N[C@@H](CO)C(=O)N[C@@H](CO)C(=O)NCC(=O)N[C@@H](C)C(=O)N1CCC[C@H]1C(=O)N1CCC[C@H]1C(=O)N1CCC[C@H]1C(=O)N[C@@H](CO)C(=O)N[C@@H](CCCCN)C(N)=O)C(C)C` (stereo partly drawn) [P016], for which the MRT inf in series [2] (iv, 12.5 nmol/kg) was 72.9 ± 10.9 h; in [2] (sc, 25 nmol/kg) it was 101 ± 19.2 h; in [4] (iv), 26.6 h; in [4] (sc), 35.9 h; in series [6] (dog, in vivo, sc) it was 108 ± 23.2 h; in series [1], 31.1 ± 1 h. Moreover, the MRT last is 65.3 ± 8.85 h in series [2] (iv, 12.5 nmol/kg); 96.5 ± 15.9 h in series [2] (sc, 25 nmol/kg); 19.9 h in series [4] (iv); 26 h in [4] (sc); 44.8 ± 4.17 h in series [6] (dog, in vivo, sc); 28.1 ± 1.12 h in series [1]. The T1/2 is 59.81 ± 8.95 h in series [2] (iv, 12.5 nmol/kg); 60.40 ± 12.80 h in series [2] (sc, 25 nmol/kg); 69.32 h in series [6] (dog, in vivo, sc); 14.1 ± 0.153 h in series [1]. Moreover, the MTD is 1.92 µmol/kg in [3] (MTD for 2 weeks, twice a week) and above 10 mg/kg in series [3] (continuously administered twice a week for 2 weeks). The “Toxicokinetic: Cmax and AUC versus dose” value with SD male rats (male SD rats, 1, 3, 10 mg/kg) is listed as “increase nearly proportionally to the dose”. Besides, in the series on SD male rats (male SD rats, continuously administered twice a week for 2 weeks), the “Toxicokinetic: accumulation” value is “no substantial accumulation”. In addition, the “Food Intake” value with SD male rats (setting [7]) is on record as “dose-dependent decrease”. Further, the “Gross Anatomy” value in the series on SD male rats (setting [7]) is reported as “no abnormalities are found”. Moreover, the “Safety Window (based on dosage)” value in the series with SD male rats (rat MTD for 2 weeks vs efficacy dose in db/db mice) was 1282. Besides, in [5], the “heart rate recovery time” value was in the range of 72 to 120 h. In addition, in series [5], the “increase in HR” value is on record as “lower than that for Tirepatide”. The compound further gave an AUC(0-t) in [6] (beagle dogs, single subcutaneous administration, plasma) of 29925 ng·h/mL.
